In patent US3970648A, “2-[2-(5-Nitro-2-furyl)vinyl]-4-(anilino)quinazolines” (Diamond Shamrock Corporation, priority 1974, dated 1976):

Assay: Growth rate and feed efficiency in swine, Example XIII (Table VIII)
Type: in vivo, weanling pigs
Details: 25 g/T
From the text: Thirty-six weanling pigs weighing approximately 30 pounds each in good physical condition and originating from a common source were used in these tests. The pigs were allocated into sex and weight equalized pens of six pigs each. A 1 week period was allowed for acclimatization before testing. Three replicates of six pigs were fed the basal ration described below, and three replicates were fed the same basal ration supplemented with 25 g/T of the product of Example I.
The basal ration was a 17% commercial corn-soya pelletized formulation which was free of antibiotic and drug components. Composition of the basal ration formulation was: […]
The rations were offered ad libitum from six bushel self-feeders with a continuous supply of fresh water. The same ration formulations were used throughout the 6 week feeding period. Individual pig weighing were made after 0, 2, 4 and 6 (termination) week periods. Feed consumption records were kept on a pen basis, with feed efficiency conversion being compiled at the end of the second, fourth and sixth (termination) week of feeding. Complete morbidity and mortality records were kept.

[1] = 6 weeks, mean of three replicates

Compound: O=[N+]([O-])c1ccc(C=Cc2nc(Nc3ccc(O)cc3)c3ccccc3n2)o1 [Example I, 2-[2-(5-nitro-2-furyl)vinyl]-4-(p-hydroxyanilino)quinazoline]
- Improved Response Over Basal Ration: Feed Efficiency (6 weeks): +2.4%
- Improved Response Over Basal Ration: Gain (6 weeks): +9.9%
- feed efficiency (in words) (6 weeks): enhanced feed efficiency
- growth improvement (in words) (6 weeks): very substantial growth improvement
- Avg. Daily Gain [1]: 1.537
- Feed/lb. Gain [1]: 2.507
- Avg. Daily Gain (6 weeks, replicate a): 1.567
- Feed/lb. Gain (6 weeks, replicate a): 2.722
- Avg. Daily Gain (6 weeks, replicate b): 1.567
- Feed/lb. Gain (6 weeks, replicate b): 2.392
- Avg. Daily Gain (6 weeks, replicate c): 1.476
- Feed/lb. Gain (6 weeks, replicate c): 2.406
- Avg. 6 Wk. Wt. Per Pig (replicate a): 97.8
- Avg. 6 Wk. Wt. Per Pig (replicate b): 97.6
- Avg. 6 Wk. Wt. Per Pig (replicate c): 93.7
